Data reported in article PMC11117716 (Biomolecules, 2024).

Legend:
LogD = type: physicochemical
[1] = Plasma pharmacokinetics after oral Posiphen in CD-1 mice (LC-MS/MS); conditions: for Mean plasma concentration: CD-1 mice, Posiphen 65 mg/kg
Description: (§1) The animal PKs were taken from multiple GLP toxicology studies, biomarker studies, and efficacy studies. […] Sample size (n) represents the number of animals at each time point of sample collection. […] The dose volume was determined according to animals’ weight collected on the dosing day.
(§2) In mice, blood samples were collected via the saphenous vein or other suitable blood collection site into a microcentrifuge tube containing the anti-coagulant K2-EDTA on wet ice and processed for plasma. For samples collected within the first hour of dosing, ±1 min is acceptable, while for all other timepoints, samples were taken within 5% of the scheduled time and are not considered as protocol deviations. Plasma samples were centrifuged (3200× g for 10 min at 4 °C) within an hour of collection. CSF samples were collected with 3 μL volume per time point, frozen on dry ice, and stored at −60 °C for further analysis. For brain collection in mice, animals were euthanized using CO2 inhalation. Whole brain was collected, washed in cold saline, dried, and homogenized immediately […]. Homogenizing buffer MeOH/15 mM PBS (1:2, v:v) was used at a ratio of 1:9 (1 g of tissue with 9 mL of buffer; the dilution ratio is 10).
(§3) In humans, the bioanalytical method was performed in accordance with current FDA, Industry Guidelines, and OECD Principles. […] The sample analysis was conducted in accordance with current GCP and GLP principles, and the results were presented for pharmacokinetic profiling (Absorption Systems, Exton, PA, USA). Calibration ranges for each analyte ranged from 1000 ng/mL to 1 ng/mL (or ng/g for brain) in plasma, brain, and CSF matrices. The detection limit was 0.025 ng/mL. The following PK parameters were collected for the purpose of this manuscript: maximum concentration (Cmax), time to maximum drug concentration (Tmax), half-life (T1/2), and the Area Under the Curve (AUC).
Blood plasma samples were collected at various time points within the initial 8 h following administration (6 h for humans). Plasma concentrations (ng/mL) were measured over the 8 h observation window to characterize the maximum concentration (Cmax), the time to peak drug concentration (Tmax), the half-life (T1/2), and the Area Under the Curve (AUC).

acetylcholinesterase = conditions: cited from earlier work
[2] = Posiphen pharmacokinetics compared across species (mouse, rat, dog, human); type: in vivo
Description: This paper describes data from multiple studies.
The detection limit was 0.025 ng/mL.

in vivo = conditions: CD-1, mouse; for T1/2 / Tmax / Tmax (time of Cmax) / Cmax: po; for Cmax: 65 mg/kg
Description: as §1, §2, §3

[3] = test system: neurotoxic aggregating proteins; conditions: cited from earlier work
[4] = Population pharmacokinetic analysis (Nonmem) in healthy volunteers and Alzheimer's and Parkinson's patients; type: in vivo, human; conditions: popPK
Description: Population pharmacokinetic analysis was conducted using data from healthy volunteers from Study 101 (single ascending dose study with 72 subjects) and Study 102 (multiple dose study with 48 volunteers) and in patients (multiple dose study in 68 patients with early Alzheimer’s or early Parkinson’s disease). Data were fit using a Bayesian approach as implemented in the software package Nonmem® (version 7.5.1, Icon Development Solutions, Dublin, Ireland). Standard model building approaches were used. After a base model was established, covariates were evaluated singly and assessed graphically using eta plots—The full model consisted of all statistically significant covariates identified during the single covariate evaluation phase, and back elimination was conducted. Each covariate was removed from the full model, and the impact of that removal was assessed based on model output. The final model performance was assessed graphically and using simulation with a visual predictive check (VPC). […]
The asymptotic standard errors (SEs) and nonparamet ric bootstrapped confidence intervals (CIs) estimated the parameter precision. Other model statistics were evaluated, such as etabar and associated p values. […]
substantial skewness or kurtosis; therefore, transforms were not evaluated. […]
Plasma concentration data were evaluated using an LTBS approach. […]

[5] = both, CD-1, mouse, in vivo, po, 65 mg/kg

CN1CC[C@]2(C)c3cc(OC(=O)Nc4ccccc4)ccc3N(C)C12.O=C(O)C(O)C(O)C(=O)O (stereo partly drawn) [Posiphen, (3aR)-1,3a, 8-trimethyl-1,2,3,3a, 8,8a-hexahydropyrrolo (2,3-b) indol-5-yl phenylcarbamate tartrate]
logD (LogD): 2.2
Mean plasma concentration ([1]; 0.25 h): 937 ng/mL
Mean plasma concentration ([1]; 0.5 h): 939 ng/mL
Mean plasma concentration ([1]; 1 h): 610 ng/mL
Mean plasma concentration ([1]; 2 h): 571 ng/mL
Mean plasma concentration ([1]; 4 h): 19.5 ng/mL
AUC(0-t) ([1]; Table 2, mouse plasma, oral Posiphen): 1707 ng·h/mL
AUC(0-t) [1, 5]: 1710 ng·h/mL
Cmax [1, 5]: 939 ng/mL
half-life ([1]; both, CD-1, mouse, in vivo, po, 65 mg/kg, T1/2, mouse plasma, Posiphen PO 65 mg/kg, n = 7): 33.6 min
Tmax ([1]; both, CD-1, mouse, in vivo, po, 65 mg/kg, Tmax, mouse plasma, Posiphen PO 65 mg/kg, n = 7): < 60 min
T1/2 ([1]; mouse plasma, Posiphen PO 65 mg/kg, n = 7, 65 mg/kg): 33.7 min
Acetylcholinesterase inhibitory (AChEI) activity (acetylcholinesterase): no acetylcholinesterase inhibitory (AChEI) activity
half-life ([2]; CSF or brain, oral): > 720 min
Time to peak ([2]; all analyzed species: mouse, rat, dog, human): ≤ 2 h
Kp (in vivo): 5.04
Kp (in vivo; in vivo): 0.17
T1/2 (in vivo; in vivo): 30 min
Tmax (in vivo; in vivo): 139 min
Tmax (time of Cmax) (in vivo; in vivo): 30 min
Cmax (in vivo; in vivo, Cmax): 163 ng/mL
T1/2 (in vivo): 30 min
Tmax (in vivo): 44.4 min
Tmax (time of Cmax) (in vivo): 30 min
Cmax (in vivo): 4740 ng/mL
TINAP activity [3]: have TINAP
Km ([4]; human, plasma, oral, as dose increased from 0.04 to 2.4 mg/kg, read-out: Michaelis constant (km)): 0.01 to 0.015 µg/mL
Variability in absorption, metabolism and clearance between healthy subjects and Alzheimer's or Parkinson's patients [4]: no variability
